Measurements reported in the Kinase Knowledgebase extract (Sharma et al. 2016).

Columns and labels:
CDK2 (human) [1] = target: CDK2 (human) (UniProt P24941); assay: Enzyme Assay
CDK2 (human) [2] = target: CDK2 (human) (UniProt P24941); assay: Cell-Based Assay
EGFR (human) = EGFR (human) (UniProt P00533)
Chain of EGFR (human) (P00533 whole entry, looked up): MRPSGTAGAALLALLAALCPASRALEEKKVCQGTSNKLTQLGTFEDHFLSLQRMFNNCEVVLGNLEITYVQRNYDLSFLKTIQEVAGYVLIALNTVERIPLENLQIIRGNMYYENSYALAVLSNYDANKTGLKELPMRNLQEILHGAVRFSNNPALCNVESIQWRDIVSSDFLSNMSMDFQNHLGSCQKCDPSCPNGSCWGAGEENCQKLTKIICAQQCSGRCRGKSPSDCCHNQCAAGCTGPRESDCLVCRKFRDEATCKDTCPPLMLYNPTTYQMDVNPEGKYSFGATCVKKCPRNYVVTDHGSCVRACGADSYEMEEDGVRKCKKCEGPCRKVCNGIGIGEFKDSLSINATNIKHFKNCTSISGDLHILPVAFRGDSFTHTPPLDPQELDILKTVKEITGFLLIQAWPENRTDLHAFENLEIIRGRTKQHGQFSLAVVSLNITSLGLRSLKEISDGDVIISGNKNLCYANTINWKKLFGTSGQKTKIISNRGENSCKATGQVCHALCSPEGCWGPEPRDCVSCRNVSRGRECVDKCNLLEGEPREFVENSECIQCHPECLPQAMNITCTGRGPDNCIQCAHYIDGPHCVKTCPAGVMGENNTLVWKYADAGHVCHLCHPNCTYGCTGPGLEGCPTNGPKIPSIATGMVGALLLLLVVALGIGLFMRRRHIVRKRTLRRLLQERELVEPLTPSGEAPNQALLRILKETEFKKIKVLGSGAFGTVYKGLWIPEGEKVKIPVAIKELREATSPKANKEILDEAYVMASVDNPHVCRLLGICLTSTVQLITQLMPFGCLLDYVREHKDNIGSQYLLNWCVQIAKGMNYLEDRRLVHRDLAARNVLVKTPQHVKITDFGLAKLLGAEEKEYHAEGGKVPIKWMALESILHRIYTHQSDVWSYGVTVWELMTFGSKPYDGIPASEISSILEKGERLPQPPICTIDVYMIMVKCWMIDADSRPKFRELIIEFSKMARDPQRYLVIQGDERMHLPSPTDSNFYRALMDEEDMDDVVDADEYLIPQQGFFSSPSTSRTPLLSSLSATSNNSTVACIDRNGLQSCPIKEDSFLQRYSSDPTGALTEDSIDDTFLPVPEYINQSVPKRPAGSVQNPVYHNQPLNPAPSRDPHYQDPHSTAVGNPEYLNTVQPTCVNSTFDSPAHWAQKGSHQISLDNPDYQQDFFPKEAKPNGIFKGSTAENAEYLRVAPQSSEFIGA

IC50 (CDK2 (human) [1]) [µM] | IC50 (EGFR (human)) [µM] | SMILES | GI50 (CDK2 (human) [2]; a431) [µM] | GI50 (CDK2 (human) [2]; hct 116) [µM]
3.8 | > 100 | Cc1nc(NN=Cc2ccco2)nc(-c2ccc(O)cc2O)c1C(=O)Nc1cccc([N+](=O)[O-])c1 | 2.91 | 8.89
10.3 | > 100 | CC1=CN(c2nc(C)c(C(=O)Nc3cccc([N+](=O)[O-])c3)c(-c3ccc(O)cc3O)n2)C(=O)C1=Cc1ccco1 | 15.8 | > 100
28.2 | > 100 | Cc1nc(NN2C(=O)C(=Cc3ccccc3)SC2=S)nc(-c2ccc(O)cc2O)c1C(=O)Nc1cccc([N+](=O)[O-])c1 | 24.3 | 16.6
3.1 | > 100 | CC1=CN(c2nc(C)c(C(=O)Nc3cccc([N+](=O)[O-])c3)c(-c3ccc(O)cc3O)n2)C(=O)C1=Cc1cccs1 | 37.1 | 26.5
 | 0.0008 | Clc1cccc(Nc2ncnc3cc4c(cc23)OCCO4)c1 |  | 
 |  | CC1=C(C(=O)Nc2cccc([N+](=O)[O-])c2)C(c2ccc(O)cc2O)NC(SCc2ccccc2)=N1 (stereo not given) | > 100 | 
> 100 | 47.9 | Cc1nc(NN)nc(-c2ccc(O)cc2O)c1C(=O)Nc1cccc([N+](=O)[O-])c1 | 24.3 | 47.7
0.3 | 80.6 | Cc1nc(NN2C(=O)C(=Cc3cccs3)SC2=S)nc(-c2ccc(O)cc2O)c1C(=O)Nc1cccc([N+](=O)[O-])c1 | 2.78 | 4.5
22.9 | > 100 | Cc1nc(NN=Cc2cccs2)nc(-c2ccc(O)cc2O)c1C(=O)Nc1cccc([N+](=O)[O-])c1 | 19.1 | 38.2
 |  | CC1=C(C(=O)Nc2cccc([N+](=O)[O-])c2)C(c2ccc(O)cc2O)NC(NCc2ccccc2)=N1 (stereo not given) |  | > 100
0.4 | 99.3 | Cc1nc(NN2C(=O)C(=Cc3ccco3)SC2=S)nc(-c2ccc(O)cc2O)c1C(=O)Nc1cccc([N+](=O)[O-])c1 | 28.9 | > 100
